Source: patent publication US7589086B2, “Substituted pyrazolo[3,4-D]pyrimidines as anti-tumor agents” (Universita degli Studi di Siena, priority 2003, dated 2009)

What was measured:
[1] = system: A431 human epidermoid carcinoma cells; experiment: Cell proliferation assay (MTT), A431; type: cell-based; settings: compounds 0-100 μM, 72 hours, means ± SEM, NA = not active at 100 μM concentration
Experimental: (§1) A431 (2×10^4 cells/mL) were incubated in […] DMEM culture medium (BioWhittaker, Vallensbaek, DK). Differently, 8701-BC (2×10^4 cells/mL) were incubated in 100 μL RPMI 1640 culture medium (BioWhittaker, Vallensbaek, DK). Both cell lines were supplemented with 10% foetal calf serum (FCS; BioWhittaker, Vallensbaek, DK) and antibiotics (100 U/mL penicillin and 100 μg/mL streptomycin), at 37° C. in 5% CO2 for 8 hours, to allow adhesion. After adhesion, the medium was replaced with 100 μL medium supplemented with 0.5% FCS. After an overnight incubation, the medium was replaced and 100 μL DMEM with 10% FCS along with different concentrations (0-100 μM) of the studied compounds were added to cell cultures.
(§2) Following 72 hours, cells were treated with 10 μL of the 3-(4,5-dimethylthiazol-2-yl)-[…] (MTT) solution (5 mg/mL). Four hours later, 100 μL of propan-2-ol in a 0.04 M HCl solution were added to dissolve the formazan product. The microplates were read using an ELISA plate reader at 570 nm with a reference wavelength of 630 nm.

[2] = system: 8701-BC breast cancer cells; experiment: Cell proliferation assay (MTT), 8701-BC; type: cell-based, human; settings: exponentially growing 8701-BC cells, compounds 0-100 μM, 72 hours, means ± SEM, NA = not active at 100 μM concentration
Experimental: as §1, §2

Src (Tyr416) = target: T1, Src (Tyr416) (Homo sapiens, UniProt P12931); experiment: Phospho-Src inhibition, immunoblot, 8701-BC cells after EGF stimulation; type: cell-based
T1 construct: subjected to immunoblot using phospho-specific antibodies against Src (Y416) and non pospho-specific Src as control; endogenous in cells; host or cells: 8701-BC breast cancer cells
T1 sequence (P12931 whole entry): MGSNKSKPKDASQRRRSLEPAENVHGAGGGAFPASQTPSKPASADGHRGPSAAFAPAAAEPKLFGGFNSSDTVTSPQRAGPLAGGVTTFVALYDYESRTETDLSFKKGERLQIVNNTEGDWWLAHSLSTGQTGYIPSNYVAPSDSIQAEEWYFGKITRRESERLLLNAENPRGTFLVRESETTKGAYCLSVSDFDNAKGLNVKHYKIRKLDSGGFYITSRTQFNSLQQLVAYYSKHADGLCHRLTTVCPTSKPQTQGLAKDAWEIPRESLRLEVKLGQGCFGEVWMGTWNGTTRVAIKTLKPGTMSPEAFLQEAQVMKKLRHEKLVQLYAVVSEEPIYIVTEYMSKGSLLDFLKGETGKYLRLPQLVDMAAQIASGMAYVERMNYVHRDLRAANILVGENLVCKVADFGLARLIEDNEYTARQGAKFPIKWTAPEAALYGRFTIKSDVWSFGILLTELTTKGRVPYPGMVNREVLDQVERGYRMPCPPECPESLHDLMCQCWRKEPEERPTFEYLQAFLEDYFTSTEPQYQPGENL
Experimental: FIG. 3. […] Immunoblot analysis was performed using phospho-specific antibodies to Src (Tyr416). Filters were additionally reprobed with specific non-phospho anti-Src antibodies after stripping. Lane 1: cell control; lane 2: cells treated for 15 min with EGF (100 nM); lane 3-7: cells challenged for 3 h in the presence of 10 μM of the specified compound and then treated for 15 min with EGF (100 nM).
Immunoblot analysis was performed using phospho-specific antibodies to Src (Tyr416). Filters were additionally reprobed with specific non-phospho anti-Src antibodies after stripping.
Cells were treated as reported above but the cells were challenged with the compounds for 3 h, and then treated with 100 nM EGF (Cell Signaling Technology, MA, U.S.A.). […] later, cells were harvested and lysed in an appropriate buffer containing 1% Triton X-100. Proteins were quantitated by the BCA method (Pierce Rockford, U.S.A.). Equal amounts of total cellular protein were resolved by SDS-polyacrylamide gel electrophoresis, transferred to nitrocellulose filters and subjected to immunoblot using phospho-specific antibodies against Src (Y416) and non pospho-specific Src as control (Cell Signaling Technology, MA, U.S.A.).

K562 cells = experiment: Cell proliferation assay, K562; type: cell-based, human; settings: compounds 0-100 μM, means ± SEM
Experimental: (§3) MEG-01 and K562 (2×10^4 cells/mL) were incubated in 100 μL RPMI 1640 culture medium (BioWhittaker, Vallensbaek, DK), supplemented with 10% foetal calf serum (FCS; BioWhittaker, Vallensbaek, DK) and antibiotics (100 U/mL penicillin and 100 μg/mL streptomycin), at 37° C. in 5% CO2. After an overnight incubation with 100 μL medium supplemented with 0.5% FCS, the medium was replaced and 100 μL RPMI 1640 with 10% FCS along with different concentrations (0-100 μM) of the studied compounds, were added to cell cultures.

Meg-01 cells = experiment: Cell proliferation assay, Meg-01; type: cell-based, human; settings: compounds 0-100 μM, means ± SEM
Experimental: as §3

[3] = 10 μM compound 3 h, then 100 nM EGF 15 min, immuno blot gel area

IC50 [1] | IC50 [2] | Structure (SMILES) | also measured
20.2 ± 0.4 µM | – | COc1cc2ncnc(Nc3cccc(Cl)c3)c2cc1OC [AG1478, reference compound] | –
37.6 ± 0.8 µM | 67.5 ± 1.2 µM | CSc1nc(N2CCCCC2)c2cnn(CC(Cl)c3ccccc3)c2n1 (centres unmarked) [Compound 1a] | –
26.9 ± 0.4 µM | 64.2 µM | CSc1nc(N2CCOCC2)c2cnn(CC(Cl)c3ccccc3)c2n1 (centres unmarked) [Compound 1b] | –
32.4 ± 0.6 µM | 59.8 ± 3.1 µM | CCOCCNc1nc(SC)nc2c1cnn2CC(Cl)c1ccccc1 (centres unmarked) [Compound 1c] | –
27.1 ± 0.2 µM | 31.2 µM | CSc1nc(NCCc2ccccc2)c2cnn(CC(Cl)c3ccccc3)c2n1 (centres unmarked) [Compound 1f] | Phospho-Src/Non-phospho-Src ratio (%) (Src (Tyr416); 10 μM compound 3 h, then 100 nM EGF 15 min, Control + EGF 56, Control 23): 9%; Non-phospho-Src (Src (Tyr416); [3]): 168 area units; Phospho-Src (Tyr416) (Src (Tyr416); [3]): 15 area units; inhibition of Src phosphorylation compared with PP2 (in words) (Src (Tyr416); immunoblot, phospho-specific antibodies to Src (Tyr416)): inhibit Src phosphorylation better than the reference compound PP2
32.1 ± 0.5 µM | 64.1 ± 0.5 µM | CCCNc1nc(SC)nc2c1cnn2CC(Cl)c1ccccc1 (centres unmarked) [Compound 1g] | –
70.2 ± 1.4 µM | 86.9 ± 1.2 µM | CCN(CC)c1nc(SC)nc2c1cnn2CC(Cl)c1ccccc1 (centres unmarked) [Compound 1h] | –
42.3 ± 0.7 µM | 79.8 ± 3 µM | CCSc1nc(N2CCOCC2)c2cnn(CC(Cl)c3ccccc3)c2n1 (centres unmarked) [Compound 2b] | –
79.4 ± 1.8 µM | 28.6 ± 1.6 µM | CCCNc1nc(SCC)nc2c1cnn2CC(Cl)c1ccccc1 (centres unmarked) [Compound 2d] | –
13.4 ± 0.2 µM | – | OC(Cn1ncc2c(N3CCCCC3)ncnc21)c1ccccc1 (centres unmarked) [Compound 3c] | –
12.7 ± 0.7 µM | – | OC(Cn1ncc2c(NCc3ccccc3)ncnc21)c1ccccc1 (centres unmarked) [Compound 3e] | –
80.1 ± 2.5 µM | 45.6 ± 0.5 µM | OC(Cn1ncc2c(NCCc3ccccc3)ncnc21)c1ccccc1 (centres unmarked) [Compound 3f] | –
69.3 ± 1.2 µM | – | C(=Cn1ncc2c(N3CCCCC3)ncnc21)c1ccccc1 [Compound 4a] | –
91.5 ± 2 µM | 80.5 ± 6.8 µM | CCCCNc1ncnc2c1cnn2C=Cc1ccccc1 [Compound 4c] | –
– | 43.4 ± 0.4 µM | CCOCCNc1ncnc2c1cnn2C=Cc1ccccc1 [Compound 4f] | –
63.1 ± 1 µM | 50.4 ± 0.1 µM | C(=Cn1ncc2c(N3CCCC3)ncnc21)c1ccccc1 [Compound 4g] | –
11.7 ± 0.1 µM | 65 ± 0.3 µM | C(=Cn1ncc2c(NCc3ccccc3)ncnc21)c1ccccc1 [Compound 4i] | –
15 ± 1.2 µM | 64.7 ± 0.6 µM | C(=Cn1ncc2c(NCCc3ccccc3)ncnc21)c1ccccc1 [Compound 4j] | –
49.8 ± 0.8 µM | – | CCSc1nc(N2CCOCC2)c2cnn(C=Cc3ccccc3)c2n1 [Compound 4k] | IC50 (K562 cells): 75.1 ± 1.7 µM; IC50 (Meg-01 cells): 12.1 ± 1.1 µM
39.8 ± 0.6 µM | – | CSc1nc(NCc2ccccc2)c2cnn(C=Cc3ccccc3)c2n1 [Compound 4l] | –
35.7 ± 0.6 µM | – | CSc1nc(N2CCOCC2)c2cnn(C=Cc3ccccc3)c2n1 [Compound 4n] | –
33.6 ± 1.2 µM | – | CCCCNc1ncnc2c1cnn2CC(Br)c1ccccc1 (centres unmarked) [Compound 5d] | IC50 (K562 cells): 34.3 ± 0.9 µM; IC50 (Meg-01 cells): 19.4 ± 0.4 µM

Further lines, the molecule ahead of its results:

Structure (SMILES) | IC50 [1] | IC50 [2] | also measured
CCCCNc1nc(SC)nc2c1cnn2CC(Cl)c1ccccc1 (centres unmarked) [Compound 1d] | 27.4 ± 0.5 µM | 63.8 ± 2.1 µM | –
CSc1nc(NCc2ccccc2)c2cnn(CC(Cl)c3ccccc3)c2n1 (centres unmarked) [Compound 1e] | 24.6 ± 0.7 µM | 53.2 ± 1.2 µM | –
CSc1nc(N2CCCC2)c2cnn(CC(Cl)c3ccccc3)c2n1 (centres unmarked) [Compound 1i] | 32.3 ± 0.8 µM | 56.3 ± 2 µM | –
CSc1nc(N2CCCCCC2)c2cnn(CC(Cl)c3ccccc3)c2n1 (centres unmarked) [Compound 1j] | – | 54.4 ± 0.8 µM | –
CSc1nc(NC2CCCCC2)c2cnn(CC(Cl)c3ccccc3)c2n1 (centres unmarked) [Compound 1k] | 43.8 ± 0.7 µM | 35.3 ± 0.5 µM | –
CCCCNc1nc(SCC)nc2c1cnn2CC(Cl)c1ccccc1 (centres unmarked) [Compound 2c] | 40.2 ± 0.4 µM | 38.8 ± 0.5 µM | IC50 (K562 cells): 27.4 ± 0.6 µM
CCSc1nc(N2CCCC2)c2cnn(CC(Cl)c3ccccc3)c2n1 (centres unmarked) [Compound 2e] | 89.3 ± 1.7 µM | 72.1 ± 1.7 µM | –
CCSc1nc(NCc2ccccc2)c2cnn(CC(Cl)c3ccccc3)c2n1 (centres unmarked) [Compound 2f] | – | 42.8 ± 0.8 µM | –
OC(Cn1ncc2c(N3CCOCC3)ncnc21)c1ccccc1 (centres unmarked) [Compound 3a] | 86.9 ± 2.1 µM | – | –
CCCCNc1ncnc2c1cnn2CC(O)c1ccccc1 (centres unmarked) [Compound 3b] | 83.2 ± 1.8 µM | – | –
CCCNc1ncnc2c1cnn2CC(O)c1ccccc1 (centres unmarked) [Compound 3d] | 91.2 ± 1.4 µM | – | –
OC(Cn1ncc2c(NCc3ccc(F)cc3)ncnc21)c1ccccc1 (centres unmarked) [Compound 3g] | 95.7 ± 2.3 µM | 54.4 ± 1.5 µM | –
C(=Cn1ncc2c(N3CCOCC3)ncnc21)c1ccccc1 [Compound 4b] | 59.2 ± 1 µM | 58.8 ± 0.7 µM | –
C(=Cn1ncc2c(N3CCCCCC3)ncnc21)c1ccccc1 [Compound 4d] | 43.6 ± 1.3 µM | 93.7 ± 0.6 µM | –
CCCNc1ncnc2c1cnn2C=Cc1ccccc1 [Compound 4e] | 61.2 ± 1 µM | 57.2 ± 0.8 µM | –
C(=Cn1ncc2c(NC3CCCCC3)ncnc21)c1ccccc1 [Compound 4h] | – | 50.5 ± 1.3 µM | –
CSc1nc(N2CCCCC2)c2cnn(C=Cc3ccccc3)c2n1 [Compound 4m] | 54.1 ± 0.7 µM | – | –
BrC(Cn1ncc2c(NC3CCCCC3)ncnc21)c1ccccc1 (centres unmarked) [Compound 5i] | 28.2 ± 0.4 µM | – | IC50 (K562 cells): 38.2 ± 0.8 µM; IC50 (Meg-01 cells): 32.7 ± 0.3 µM
